Test results taken from ChEMBL document CHEMBL1128392, “Receptor surface models. 2. Application to quantitative structure-activity relationships studies” (J Med Chem, 1995).

Target: Dopamine beta-hydroxylase (Homo sapiens, UniProt P09172)
Test: Inhibition of dopamine beta hydroxylase

Sequence of Dopamine beta-hydroxylase (P09172 whole entry): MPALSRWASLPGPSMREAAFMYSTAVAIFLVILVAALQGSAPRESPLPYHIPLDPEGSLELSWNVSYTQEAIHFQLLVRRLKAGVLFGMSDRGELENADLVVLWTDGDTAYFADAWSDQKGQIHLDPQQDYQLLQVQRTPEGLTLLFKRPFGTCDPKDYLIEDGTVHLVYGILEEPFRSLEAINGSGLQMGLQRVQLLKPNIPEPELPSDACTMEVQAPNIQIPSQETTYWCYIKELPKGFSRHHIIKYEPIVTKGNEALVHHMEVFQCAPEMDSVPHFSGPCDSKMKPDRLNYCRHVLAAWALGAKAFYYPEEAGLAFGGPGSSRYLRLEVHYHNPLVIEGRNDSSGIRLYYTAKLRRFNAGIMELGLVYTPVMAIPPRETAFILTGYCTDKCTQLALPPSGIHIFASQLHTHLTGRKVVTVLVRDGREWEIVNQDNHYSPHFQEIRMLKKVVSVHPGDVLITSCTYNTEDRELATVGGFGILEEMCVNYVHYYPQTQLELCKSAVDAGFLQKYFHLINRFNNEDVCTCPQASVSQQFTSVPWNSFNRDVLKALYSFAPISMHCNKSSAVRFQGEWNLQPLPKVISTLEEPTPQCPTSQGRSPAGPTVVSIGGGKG

IC50 [µM] | Compound
2.57 | Oc1ccc(Cn2cc[nH]c2=S)cc1
33.1 | S=c1[nH]ccn1Cc1ccccc1
52.5 | O=[N+]([O-])c1ccc(Cn2cc[nH]c2=S)cc1
355 | S=c1[nH]ccn1Cc1ccccc1Cl
95.5 | S=c1[nH]ccn1Cc1ccc(Cl)cc1
83.2 | COc1ccc(Cn2cc[nH]c2=S)cc1Br
148 | Oc1cccc(Cn2cc[nH]c2=S)c1
115 | S=c1[nH]ccn1Cc1ccc(Br)cc1
49 | Cc1cc(Cn2cc[nH]c2=S)ccc1O
5.62 | Fc1cccc(Cn2cc[nH]c2=S)c1
1.51 | Oc1ccc(Cn2cc[nH]c2=S)cc1F
200 | FC(F)(F)c1ccc(Cn2cc[nH]c2=S)cc1
148 | Cc1ccc(Cn2cc[nH]c2=S)cc1
28.2 | S=c1[nH]ccn1Cc1ccc(Cl)c(Cl)c1
12 | Oc1ccc(Cn2cc[nH]c2=S)cc1Br
12 | S=c1[nH]ccn1Cc1cccc(Cl)c1
46.8 | Fc1ccc(Cn2cc[nH]c2=S)cc1
2.19 | Oc1ccc(Cn2cc[nH]c2=S)cc1O
204 | COc1ccc(Cn2cc[nH]c2=S)cc1

Continued, compound first:

Compound | IC50 [µM]
Fc1cc(F)cc(Cn2cc[nH]c2=S)c1 | 1.2
Oc1ccc(Cn2cc[nH]c2=S)cc1C(F)(F)F | 120
S=c1[nH]ccn1Cc1c(Cl)cccc1Cl | 708
S=c1[nH]ccn1Cc1cc(Cl)cc(Cl)c1 | 2.4
COc1ccccc1Cn1cc[nH]c1=S | 74.1
S=c1[nH]ccn1Cc1cccc(Cl)c1Cl | 52.5
COc1ccc(Cn2cc[nH]c2=S)cc1F | 74.1
COc1c(F)cc(Cn2cc[nH]c2=S)cc1F | 36.3
S=c1[nH]ccn1Cc1c(Cl)cc(Cl)cc1Cl | 102
COc1c(Cl)cc(Cn2cc[nH]c2=S)cc1Cl | 46.8
COc1ccc(Cn2cc[nH]c2=S)cc1OC | 339
S=c1[nH]ccn1Cc1ccc(Cl)cc1Cl | 17
Oc1c(F)cc(Cn2cc[nH]c2=S)cc1F | 0.0741
S=c1[nH]ccn1Cc1cc(Cl)ccc1Cl | 97.7
O=[N+]([O-])c1cc(Cn2cc[nH]c2=S)ccc1O | 30.9
Oc1c(F)c(F)c(Cn2cc[nH]c2=S)c(F)c1F | 61.7
COc1ccc(Cn2cc[nH]c2=S)cc1C | 69.2
COc1cc(Cl)c(Cn2cc[nH]c2=S)c(Cl)c1 | 155
COc1ccc(Cn2cc[nH]c2=S)cc1[N+](=O)[O-] | 355
Oc1c(Cl)cc(Cn2cc[nH]c2=S)cc1Cl | 0.676
Oc1ccccc1Cn1cc[nH]c1=S | 575
Cc1ccccc1Cn1cc[nH]c1=S | 339
COc1cccc(OC)c1Cn1cc[nH]c1=S | 501
Oc1cc(Cl)c(Cn2cc[nH]c2=S)c(Cl)c1 | 75.9
COc1ccc(Cn2cc[nH]c2=S)cc1C(F)(F)F | 174
Cc1cccc(C)c1Cn1cc[nH]c1=S | 1000
COc1cccc(Cn2cc[nH]c2=S)c1 | 158
